Laboratory results: ChEMBL document CHEMBL1201862, “PubChem BioAssay data set” (2004)
Active and inactive are the calls of the source.

Tests used:
[1] = target: T1, Trace amine-associated receptor 1 (Homo sapiens, UniProt Q96RJ0); assay: Fluorescence-based cell-based high throughput dose response assay to identify agonists of the human trace amine associated receptor 1 (TAAR1).; type: functional
T1 sequence (Q96RJ0 whole entry): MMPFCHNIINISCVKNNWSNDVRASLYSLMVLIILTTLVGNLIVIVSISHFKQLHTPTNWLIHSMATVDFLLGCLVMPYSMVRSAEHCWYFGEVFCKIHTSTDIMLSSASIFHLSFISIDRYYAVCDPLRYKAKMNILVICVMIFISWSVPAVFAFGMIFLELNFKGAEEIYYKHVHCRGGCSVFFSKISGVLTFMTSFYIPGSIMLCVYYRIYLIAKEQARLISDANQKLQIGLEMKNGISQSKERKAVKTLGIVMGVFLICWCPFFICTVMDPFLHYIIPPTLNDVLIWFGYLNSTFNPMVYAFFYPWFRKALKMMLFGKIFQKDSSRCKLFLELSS

[2] = cells; type: functional, cell-based
[3] = cells; type: functional, cell-based; remark: listed apart in the source
[4] = target: T1, Trace amine-associated receptor 1; assay: Counterscreen for agonists of the human trace amine associated receptor 1 (hTAAR1): Fluorescence-based cell-based high throughput dose response assay to identify hTAAR1 agonist that also desensitize TAAR1 receptor response.; type: functional
[5] = target: Beta-galactosidase (Escherichia coli, UniProt Q8VNN2); assay: Dose response counterscreen for EBI2 assay utilizing the enzyme, b-galactosidase.; type: functional
Chain of Beta-galactosidase (Q8VNN2 whole entry): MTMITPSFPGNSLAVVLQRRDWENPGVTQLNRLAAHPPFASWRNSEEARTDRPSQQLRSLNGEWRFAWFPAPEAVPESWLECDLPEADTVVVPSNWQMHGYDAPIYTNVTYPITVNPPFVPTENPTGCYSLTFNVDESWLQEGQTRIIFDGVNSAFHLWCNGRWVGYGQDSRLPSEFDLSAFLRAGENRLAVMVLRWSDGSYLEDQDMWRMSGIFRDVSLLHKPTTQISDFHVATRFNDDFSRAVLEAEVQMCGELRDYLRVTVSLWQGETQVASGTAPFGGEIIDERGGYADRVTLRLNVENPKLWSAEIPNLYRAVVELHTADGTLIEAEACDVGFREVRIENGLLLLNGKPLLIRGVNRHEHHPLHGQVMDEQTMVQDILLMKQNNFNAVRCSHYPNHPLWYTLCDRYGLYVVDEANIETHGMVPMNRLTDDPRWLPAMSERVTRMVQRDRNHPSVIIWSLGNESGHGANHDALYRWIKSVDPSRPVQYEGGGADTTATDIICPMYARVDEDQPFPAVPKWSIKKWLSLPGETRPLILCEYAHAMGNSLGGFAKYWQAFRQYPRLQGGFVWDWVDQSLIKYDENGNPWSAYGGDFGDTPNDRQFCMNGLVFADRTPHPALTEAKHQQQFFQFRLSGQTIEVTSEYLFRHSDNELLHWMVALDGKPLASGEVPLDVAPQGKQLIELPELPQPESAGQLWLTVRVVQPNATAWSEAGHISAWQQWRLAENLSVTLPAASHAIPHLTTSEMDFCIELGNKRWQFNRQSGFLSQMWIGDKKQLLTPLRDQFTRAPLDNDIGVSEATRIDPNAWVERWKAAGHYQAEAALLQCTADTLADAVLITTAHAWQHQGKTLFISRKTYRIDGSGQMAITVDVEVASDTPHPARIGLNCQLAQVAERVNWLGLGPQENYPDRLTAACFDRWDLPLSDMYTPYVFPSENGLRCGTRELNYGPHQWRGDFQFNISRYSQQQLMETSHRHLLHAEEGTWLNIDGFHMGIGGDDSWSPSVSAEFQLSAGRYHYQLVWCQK

[6] = target: T2, Heat shock factor protein 1 (Mus musculus, UniProt P38532); assay: enhancement of HSF1-driven luciferase signal – cell-based, NIH3T3, luminescence, dose retest, confirmation (AID 435004); type: functional;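 further: stress induced by proteasome inhibitor MG132 added 30 min after compound; luciferase reporter driven by HSF1 response element in NIH3T3 cells; actives raise luminescence as potentiators of the MG132 stress response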
T2 sequence (P38532 whole entry): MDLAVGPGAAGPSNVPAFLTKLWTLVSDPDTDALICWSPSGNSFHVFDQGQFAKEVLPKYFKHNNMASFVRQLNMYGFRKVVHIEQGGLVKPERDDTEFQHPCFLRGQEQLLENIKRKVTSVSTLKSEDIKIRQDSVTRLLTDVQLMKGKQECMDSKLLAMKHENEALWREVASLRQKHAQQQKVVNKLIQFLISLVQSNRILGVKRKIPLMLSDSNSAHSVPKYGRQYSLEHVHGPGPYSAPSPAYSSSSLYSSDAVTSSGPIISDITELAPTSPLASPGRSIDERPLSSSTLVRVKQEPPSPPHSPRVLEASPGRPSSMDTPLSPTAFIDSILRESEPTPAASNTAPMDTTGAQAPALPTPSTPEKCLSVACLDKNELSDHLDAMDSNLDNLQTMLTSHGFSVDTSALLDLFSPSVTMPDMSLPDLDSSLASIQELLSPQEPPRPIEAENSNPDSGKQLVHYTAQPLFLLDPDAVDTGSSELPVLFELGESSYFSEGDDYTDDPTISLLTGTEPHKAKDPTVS

[7] = target: T3, DNA repair protein RAD52 homolog (Homo sapiens, UniProt P43351); type: functional, biochemical
T3 sequence (P43351 whole entry): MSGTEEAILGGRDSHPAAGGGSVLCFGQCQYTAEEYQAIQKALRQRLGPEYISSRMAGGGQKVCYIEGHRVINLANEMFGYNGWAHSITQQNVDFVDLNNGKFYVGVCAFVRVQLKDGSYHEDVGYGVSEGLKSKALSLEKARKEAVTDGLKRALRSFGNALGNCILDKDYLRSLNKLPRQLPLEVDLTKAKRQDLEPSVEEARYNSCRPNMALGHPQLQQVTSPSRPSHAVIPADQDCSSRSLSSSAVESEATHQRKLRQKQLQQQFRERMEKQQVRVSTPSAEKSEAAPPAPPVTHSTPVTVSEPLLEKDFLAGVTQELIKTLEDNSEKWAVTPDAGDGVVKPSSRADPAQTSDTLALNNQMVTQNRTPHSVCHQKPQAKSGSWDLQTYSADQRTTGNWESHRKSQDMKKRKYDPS

[8] = target: Protein Wnt-3a (Mus musculus, UniProt P27467); assay: SAR analysis of small molecule antagonists of Gli-SUFU in a Wnt3a luminescent reporter assay.; type: functional
Chain of Protein Wnt-3a (P27467 whole entry): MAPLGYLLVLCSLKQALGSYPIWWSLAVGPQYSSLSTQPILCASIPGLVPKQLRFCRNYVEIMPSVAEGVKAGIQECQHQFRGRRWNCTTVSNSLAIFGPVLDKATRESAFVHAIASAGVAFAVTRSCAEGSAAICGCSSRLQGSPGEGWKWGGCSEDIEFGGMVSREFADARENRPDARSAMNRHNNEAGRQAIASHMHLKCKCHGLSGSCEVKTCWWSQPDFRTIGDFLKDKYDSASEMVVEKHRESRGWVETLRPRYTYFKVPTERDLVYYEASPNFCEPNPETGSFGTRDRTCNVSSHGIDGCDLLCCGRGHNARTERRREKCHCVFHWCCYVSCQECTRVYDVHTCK

[9] = target: T4, Replicative DNA helicase DnaB (Mycobacterium tuberculosis, UniProt P9WMR3); assay: DnaB intein splicing inhibitors, dose response, biochemical, cell-free fluorescence (AID 449749); type: functional
T4 sequence (P9WMR3 whole entry): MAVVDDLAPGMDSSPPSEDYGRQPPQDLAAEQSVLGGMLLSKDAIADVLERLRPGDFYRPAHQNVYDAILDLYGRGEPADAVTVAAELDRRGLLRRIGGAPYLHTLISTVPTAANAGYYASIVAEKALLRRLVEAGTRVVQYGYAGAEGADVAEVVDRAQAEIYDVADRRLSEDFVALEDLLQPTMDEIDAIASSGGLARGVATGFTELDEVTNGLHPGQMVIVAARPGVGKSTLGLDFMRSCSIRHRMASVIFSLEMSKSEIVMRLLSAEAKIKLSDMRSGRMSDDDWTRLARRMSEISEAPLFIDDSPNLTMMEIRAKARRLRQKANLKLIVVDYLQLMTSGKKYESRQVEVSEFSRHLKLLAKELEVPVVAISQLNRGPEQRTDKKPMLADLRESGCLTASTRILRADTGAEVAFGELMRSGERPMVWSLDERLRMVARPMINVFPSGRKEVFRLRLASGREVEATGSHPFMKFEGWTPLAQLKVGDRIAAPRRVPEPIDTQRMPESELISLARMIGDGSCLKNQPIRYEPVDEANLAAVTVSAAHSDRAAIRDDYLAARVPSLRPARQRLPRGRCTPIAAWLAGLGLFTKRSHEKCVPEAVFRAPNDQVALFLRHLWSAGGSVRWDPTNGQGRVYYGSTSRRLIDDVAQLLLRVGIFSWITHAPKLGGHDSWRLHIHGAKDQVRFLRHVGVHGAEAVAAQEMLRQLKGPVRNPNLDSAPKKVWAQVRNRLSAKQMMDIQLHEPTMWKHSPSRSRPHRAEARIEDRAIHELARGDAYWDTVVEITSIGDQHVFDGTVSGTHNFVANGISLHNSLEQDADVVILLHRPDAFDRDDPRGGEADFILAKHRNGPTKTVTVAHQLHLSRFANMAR

[10] = target: T5, Mitochondrial peptide methionine sulfoxide reductase (Bos taurus, UniProt P54149); type: functional;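 further: absorbance read-out, biochemical high-throughput dose-response screen for MsrA inhibitors, confirmatory; recombinant bovine MsrA coupled to E. coli TrxB with NADPH and selenocystamine; potency is for inhibitors of MsrA activity on DMSO substrate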
T5 sequence (P54149 whole entry): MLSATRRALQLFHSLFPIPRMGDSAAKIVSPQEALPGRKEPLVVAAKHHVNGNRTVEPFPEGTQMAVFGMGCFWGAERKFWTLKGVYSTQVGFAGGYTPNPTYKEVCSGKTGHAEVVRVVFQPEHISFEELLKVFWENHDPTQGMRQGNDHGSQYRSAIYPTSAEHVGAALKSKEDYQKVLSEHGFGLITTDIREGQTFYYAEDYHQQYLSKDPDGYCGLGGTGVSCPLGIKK

[11] = target: T6, Protein RecA (Mycobacterium tuberculosis, UniProt P9WHJ3); assay: Fluorescence Cell-Free Homogeneous Dose Retest to Identify Inhibitors of RecA-Intein Splicing Activity. [Related pubchem assays (depositor defined):AID2097, AID2223, AID489010, AID492950]; type: functional
T6 sequence (P9WHJ3 whole entry): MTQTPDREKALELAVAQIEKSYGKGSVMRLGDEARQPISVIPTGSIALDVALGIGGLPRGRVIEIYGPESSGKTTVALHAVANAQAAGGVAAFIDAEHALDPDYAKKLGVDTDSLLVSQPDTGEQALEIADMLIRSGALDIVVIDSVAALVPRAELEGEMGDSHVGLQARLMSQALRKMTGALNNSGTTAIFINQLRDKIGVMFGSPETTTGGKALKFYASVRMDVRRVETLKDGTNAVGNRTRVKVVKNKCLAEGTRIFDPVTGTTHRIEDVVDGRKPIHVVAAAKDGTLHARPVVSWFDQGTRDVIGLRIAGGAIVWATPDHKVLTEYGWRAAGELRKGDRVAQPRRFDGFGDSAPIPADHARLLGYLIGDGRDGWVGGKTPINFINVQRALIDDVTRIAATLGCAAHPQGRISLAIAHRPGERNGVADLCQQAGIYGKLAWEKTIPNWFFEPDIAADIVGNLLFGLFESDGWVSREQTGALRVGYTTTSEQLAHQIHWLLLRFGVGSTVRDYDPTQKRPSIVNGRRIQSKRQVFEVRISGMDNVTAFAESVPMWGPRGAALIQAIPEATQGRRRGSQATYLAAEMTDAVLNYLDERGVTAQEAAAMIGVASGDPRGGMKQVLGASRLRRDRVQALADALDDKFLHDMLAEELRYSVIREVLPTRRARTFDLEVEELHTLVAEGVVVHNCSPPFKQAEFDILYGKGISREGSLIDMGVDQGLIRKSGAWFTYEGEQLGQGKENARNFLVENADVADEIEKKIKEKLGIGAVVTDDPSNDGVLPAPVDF

[12] = target: T7, Apoptotic protease-activating factor 1 (Homo sapiens, UniProt O14727); type: functional
T7 sequence (O14727 whole entry): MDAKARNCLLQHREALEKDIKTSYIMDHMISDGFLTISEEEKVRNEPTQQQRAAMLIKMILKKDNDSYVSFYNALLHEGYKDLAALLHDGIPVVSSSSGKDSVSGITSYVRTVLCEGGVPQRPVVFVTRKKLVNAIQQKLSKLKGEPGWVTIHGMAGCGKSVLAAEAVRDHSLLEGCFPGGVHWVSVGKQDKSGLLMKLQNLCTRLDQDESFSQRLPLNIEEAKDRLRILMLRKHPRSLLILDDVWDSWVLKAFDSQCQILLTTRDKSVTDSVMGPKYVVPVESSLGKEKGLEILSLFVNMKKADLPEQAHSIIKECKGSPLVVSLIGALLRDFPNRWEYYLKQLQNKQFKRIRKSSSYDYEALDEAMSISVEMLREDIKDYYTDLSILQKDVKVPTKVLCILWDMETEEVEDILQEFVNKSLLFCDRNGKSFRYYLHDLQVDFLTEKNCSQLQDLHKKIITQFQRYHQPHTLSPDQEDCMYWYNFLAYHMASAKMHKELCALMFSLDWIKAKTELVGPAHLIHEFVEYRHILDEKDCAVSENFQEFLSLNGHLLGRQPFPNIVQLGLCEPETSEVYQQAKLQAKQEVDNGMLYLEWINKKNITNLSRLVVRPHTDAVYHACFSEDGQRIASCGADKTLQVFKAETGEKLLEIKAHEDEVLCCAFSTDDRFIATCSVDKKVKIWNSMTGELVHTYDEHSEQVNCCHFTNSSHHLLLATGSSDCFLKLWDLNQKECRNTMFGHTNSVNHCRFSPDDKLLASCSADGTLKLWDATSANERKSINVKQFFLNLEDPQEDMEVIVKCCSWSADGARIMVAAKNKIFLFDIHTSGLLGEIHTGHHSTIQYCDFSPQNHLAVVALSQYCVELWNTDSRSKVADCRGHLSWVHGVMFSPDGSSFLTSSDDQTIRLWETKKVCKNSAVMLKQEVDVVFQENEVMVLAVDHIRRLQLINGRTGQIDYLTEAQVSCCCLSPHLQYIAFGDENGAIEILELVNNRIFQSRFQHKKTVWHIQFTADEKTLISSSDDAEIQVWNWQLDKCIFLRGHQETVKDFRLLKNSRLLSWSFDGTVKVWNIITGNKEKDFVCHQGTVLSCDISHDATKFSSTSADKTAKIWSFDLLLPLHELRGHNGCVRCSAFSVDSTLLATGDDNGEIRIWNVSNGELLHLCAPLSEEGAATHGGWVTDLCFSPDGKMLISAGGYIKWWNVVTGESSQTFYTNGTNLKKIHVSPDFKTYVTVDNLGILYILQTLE

For `CCn1c(C)nc2cc(C(=O)NNC(=O)Nc3ccc(Cl)cc3)ccc21`, the EC50 [1] was > 29.9 µM (inactive), the IC50 [2] was > 29.9 µM (inactive) and the EC50 [3] was > 29.9 µM (inactive). For the same compound, the IC50 [4] was > 29.9 µM (inactive).

For `Cn1c(=O)c(=O)n(C)c2cc(S(=O)(=O)NCCc3ccccc3)ccc21`, the EC50 [1] was 2.21 µM (active), the IC50 [2] was > 29.9 µM (inactive) and the EC50 [3] was > 29.9 µM (inactive). The IC50 [4] was 8.95 µM (active).

For `CCOC(=O)N1CCN(C(=O)c2cc3c(s2)-c2c(C)cccc2OC3)CC1`, the IC50 [5] was > 80 µM (inactive).

In the case of `O=C(CSc1ccc(Cl)cc1)N1CCN(c2c(Cl)cccc2[N+](=O)[O-])CC1`, the IC50 [5] is reported as > 80 µM (inactive) and the EC50 [6] is reported as 14.8 µM (active).

For `Cc1ccc(Nc2ccc(C(=O)NC3CCCCC3)cn2)cc1`, the IC50 [5] was > 80 µM (inactive).

In the case of `CCCCCCCCCCCCCCCC[n+]1ccccc1`, the AC50 [7] is reported as 4.21 µM (active).

With `CC(=NCCc1ccccc1)C1=C(O)OCC1` the EC50 [1] was 0.65 µM (active), the IC50 [2] was > 30 µM (inactive) and the EC50 [3] was > 30 µM (inactive). For the same compound, the IC50 [4] was 2.35 µM (active).

In the case of `Cc1nc(NC(=O)c2ccccc2)cc(N2CCCC2)n1`, the IC50 [8] is reported as > 21.8 µM (inactive).

In the case of `O=C(Nc1cc(N2CCCCC2)ncn1)c1ccsc1`, the IC50 [8] is reported as > 21.8 µM (inactive).

In the case of `CCN(CC)c1cc(NC(=O)c2cccc(F)c2)ncn1`, the IC50 [8] is reported as > 21.8 µM (inactive).

In the case of `O=C(O)c1cccc(NC2=C(n3nnc4ccccc43)C(=O)c3ccccc3C2=O)c1`, the AC50 [9] is reported as 2.53 µM (active), the IC50 [10] is reported as 31.4 µM (inactive) and the EC50 [11] is reported as 2.26 µM (active). For the same compound, the IC50 [12] was 10.9 µM (active).
